Laboratory results: US20250255981A1, “IMMUNOMODULATORY ANTIBODY-DRUG CONJUGATES” (Seagen Inc., priority 2022, published 2025)
In brackets after ≈: the same amount, converted by molar mass.

The compounds below were run on THP1-Dual™ cells (IRF-Lucia luciferase reporter) (assay: THP1-Dual™ cell reporter assay). Conditions: ADC: drug linker conjugated to targeted mAb, 48 h; some values average of multiple experiments.
Assay type: cell-based, human
Method: Potency of compounds and ADCs was evaluated using the THP1-Dual™ cells (Invivogen PN: thpd-nfis [also referred to as THP1 dual reporter cells]), which contain an IRF-Lucia luciferase reporter. Cells were cultured in RPMI-1640 (Gibco) with 10% heat-inactivated fetal bovine serum, Pen-Strep (100 U/mL-100 […], Gibco), HEPES (10 mM, Gibco)), sodium pyruvate (1 mM, Gibco), MEM non-essential amino acids (1×, Gibco), GlutaMAX (1×, Gibco), and beta-mercaptoethanol (55 μM, Gibco). Cells were plated in a 96-well flat bottom tissue culture-treated clear polystyrene plate (Corning Costar #3596) at ˜100,000 cells per well in 200 μL with the indicated concentration of the compound or ADC. The supernatant was harvested at 24 hours (compounds) or 48 hours (ADC) post plating for the reporter assay, or as indicated. To measure Lucia reporter signal, 10 µL of the supernatant was combined with 40 µL of QUANTI-Luc™ Luminescence assay reagent (Invivogen PN: rep-qlc1) in a 96-well clear flat bottom tissue culture-treated black polystyrene plate (Corning Costar #3603) and read on a Perkin Elmer Envision plate reader.

Question: How did the “EC50, Lucia reporter signal” value turn out when `CCn1nc(C)cc1C(=O)Nc1nc2cc(C(N)=O)cc(OC)c2n1C/C=C/Cn1c(NC(=O)c2cc(C)nn2CC)nc2cc(C(N)=O)cc(OCCCN(C)C(=O)[C@H](CC(=O)O)NC(=O)CCN3C(=O)C=CC3=O)c21` [Compound 17, (S,E)-4-((3-((5-carbamoyl-1-(4-(5-carbamoyl-2-(1-ethyl-3-methyl-1H-pyrazole-5-carboxamido)-7-methoxy-1H-benzo[d]imidazol-1-yl)but-2-en-1-yl)-2-(1-ethyl-3-methyl1H-pyrazole-5-carboxamido)-1H-benzo[d]imidazol-7-yl)oxy)propyl)(methyl)amino)-3-(3-(2,5-dioxo-2,5-dihydro-1H-pyrrol-1-yl)propanamido)-4-oxobutanoic acid] was run?
Answer: 2.2 ng/mL (≈ 0.00208 µM)

Question: For `CCn1nc(C)cc1C(=O)Nc1nc2cc(C(N)=O)cc(OC)c2n1C/C=C/Cn1c(NC(=O)c2cc(C)nn2CC)nc2cc(C(N)=O)cc(OCCCN(C)C(=O)[C@H](CO)NC(=O)CCN3C(=O)C=CC3=O)c21` [Compound 24, (S,E)-1-(4-(5-carbamoyl-2-(1-ethyl-3-methyl-1H-pyrazole-5-carboxamido)-7-methoxy-1H-benzo[d]imidazol-1-yl)but-2-en-1-yl)-7-(3-(2-(3-(2,5-dioxo-2,5-dihydro-1H-pyrrol-1-yl)propanamido)-3-hydroxy-N-methylpropanamido)propoxy)-2-(1-ethyl-3-methyl-1H-pyrazole-5-carboxamido)-1H-benzo[d]imidazole-5-carboxamide], which “EC50, Lucia reporter signal” value is on record?
Answer: 2.1 ng/mL (≈ 0.00203 µM)

Question: `CCn1nc(C)cc1C(=O)Nc1nc2cc(S(N)(=O)=O)ccc2n1C/C=C/Cn1c(NC(=O)c2cc(C)nn2CC)nc2cc(C(N)=O)cc(OCCCN(C)C(=O)CCN3C(=O)C=CC3=O)c21` [Compound 25, (E)-7-(3-(3-(2,5-dioxo-2,5-dihydro-1H-pyrrol-1-yl)-N-methylpropanamido)propoxy)-2-(1-ethyl-3-methyl-1H-pyrazole-5-carboxamido)-1-(4-(2-(1-ethyl-3-methyl-1H-pyrazole-5-carboxamido)-5-sulfamoyl-1H-benzo[d]imidazol-1-yl)but-2-en-1-yl)-1H-benzo[d]imidazole-5-carboxamide] was tested. Which “EC50, Lucia reporter signal” value did it give?
Answer: 307 ng/mL (≈ 0.323 µM)

Question: With `CCn1nc(C)cc1C(=O)Nc1nc2cc(C(N)=O)cc(OC)c2n1C/C=C/Cn1c(NC(=O)c2cc(C)nn2CC)nc2cc(C(N)=O)cc(OCCC3CN(C(=O)CCN4C(=O)C=CC4=O)C3)c21` [Compound 26, (E)-1-(4-(5-carbamoyl-2-(1-ethyl-3-methyl-1H-pyrazole-5-carboxamido)-7-methoxy-1H-benzo[d]imidazol-1-yl)but-2-en-1-yl)-7-(2-(1-(3-(2,5-dioxo-2,5-dihydro-1H-pyrrol-1-yl)propanoyl)azetidin-3-yl)ethoxy)-2-(1-ethyl-3-methyl-1H-pyrazole-5-carboxamido)-1H-benzo[d]imidazole-5-carboxamide] as the compound, how does the “EC50, Lucia reporter signal” value read?
Answer: 14.4 ng/mL (≈ 0.015 µM)

Question: How did the “EC50, Lucia reporter signal” value turn out when `CCn1nc(C)cc1C(=O)Nc1nc2cc(C(N)=O)cc(OC)c2n1C/C=C/Cn1c(NC(=O)c2cc(C)nn2CC)nc2cc(C(N)=O)cc(OCCCOC3CN(C(=O)CCN4C(=O)C=CC4=O)C3)c21` [Compound 27, (E)-1-(4-(5-carbamoyl-2-(1-ethyl-3-methyl-1H-pyrazole-5-carboxamido)-7-methoxy-1H-benzo[d]imidazol-1-yl)but-2-en-1-yl)-7-(3-((1-(3-(2,5-dioxo-2,5-dihydro-1H-pyrrol-1-yl)propanoyl)azetidin-3-yl)oxy)propoxy)-2-(1-ethyl-3-methyl-1H-pyrazole-5-carboxamido)-1H-benzo[d]imidazole-5-carboxamide] was run?
Answer: 10.4 ng/mL (≈ 0.0105 µM)

Question: Which “EC50, Lucia reporter signal” value does the source give for `CCn1nc(C)cc1C(=O)Nc1nc2cc(C(=O)OC)cc(OC)c2n1C/C=C/Cn1c(NC(=O)c2cc(C)nn2CC)nc2cc(C(=O)OC)cc(OCCCN(C)C(=O)CCN3C(=O)C=CC3=O)c21` [compound 66, methyl (E)-7-(3-(3-(2,5-dioxo-2,5-dihydro-1H-pyrrol-1-yl)-N-methylpropanamido)propoxy)-2-(1-ethyl-3-methyl-1H-pyrazole-5-carboxamido)-1-(4-(2-(1-ethyl-3-methyl-1H-pyrazole-5-carboxamido)-7-methoxy-5-(methoxycarbonyl)-1H-benzo[d]imidazol-1-yl)but-2-en-1-yl)-1H-benzo[d]imidazole-5-carboxylate] here?
Answer: >10,000 ng/mL

Question: How did the “EC50, Lucia reporter signal” value turn out when `CCn1nc(C)cc1C(=O)Nc1nc2cc(C(=O)OC)cc(OC)c2n1C/C=C/Cn1c(NC(=O)c2cc(C)nn2CC)nc2cc(C(=O)OC)cc(OCCCN(C)C(=O)OCc3ccc(O[C@@H]4O[C@H](C(=O)O)[C@@H](O)[C@H](O)[C@H]4O)cc3NC(=O)CCNC(=O)CCN3C(=O)C=CC3=O)c21` [compound 67] was run?
Answer: >10,000 ng/mL

Question: How did the “EC50, Lucia reporter signal” value turn out when `CCn1nc(C)cc1C(=O)Nc1nc2cc(C(=O)O)cc(OC)c2n1C/C=C/Cn1c(NC(=O)c2cc(C)nn2CC)nc2cc(C(=O)O)cc(OCCCN(C)C(=O)CCN3C(=O)C=CC3=O)c21` [compound 68, (E)-1-(4-(5-carboxy-2-(1-ethyl-3-methyl-1H-pyrazole-5-carboxamido)-7-methoxy-1H-benzo[d]imidazol-1-yl)but-2-en-1-yl)-7-(3-(3-(2,5-dioxo-2,5-dihydro-1H-pyrrol-1-yl)-N-methylpropanamido)propoxy)-2-(1-ethyl-3-methyl-1H-pyrazole-5-carboxamido)-1H-benzo[d]imidazole-5-carboxylic acid] was run?
Answer: >10,000 ng/mL

Question: `CCn1nc(C)cc1C(=O)Nc1nc2cc(C(=O)O)cc(OC)c2n1C/C=C/Cn1c(NC(=O)c2cc(C)nn2CC)nc2cc(C(=O)O)cc(OCCCN(C)C(=O)OCc3ccc(O[C@@H]4O[C@H](C(=O)O)[C@@H](O)[C@H](O)[C@H]4O)cc3NC(=O)CCNC(=O)CCN3C(=O)C=CC3=O)c21` [compound 69] was tested. Which “EC50, Lucia reporter signal” value did it give?
Answer: >10,000 ng/mL

Question: How did the “EC50, Lucia reporter signal” value turn out when `CCn1nc(C)cc1C(=O)Nc1nc2cc(C(N)=O)cc(OC)c2n1C/C=C/Cn1c(NC(=O)c2cccnn2)nc2cc(C(N)=O)cc(OCCCN(C)C(=O)CCN3C(=O)C=CC3=O)c21` [compound 96] was run?
Answer: >10,000 ng/mL

Question: Which “EC50, Lucia reporter signal” value does the source give for `CCn1nc(C)cc1C(=O)Nc1nc2cc(C(N)=O)cc(OC)c2n1C/C=C/Cn1c(NC(=O)c2ccnnc2)nc2cc(C(N)=O)cc(OCCCN(C)C(=O)CCN3C(=O)C=CC3=O)c21` [compound 98] here?
Answer: >10,000 ng/mL

Question: Which “EC50, Lucia reporter signal” value does the source give for `CCn1nc(C)cc1C(=O)Nc1nc2cc(C(N)=O)cc(OC)c2n1C/C=C/Cn1c(NC(=O)c2ncccn2)nc2cc(C(N)=O)cc(OCCCN(C)C(=O)CCN3C(=O)C=CC3=O)c21` [compound 101] here?
Answer: >10,000 ng/mL

Question: For `CCn1cc(C(=O)Nc2nc3cc(C(N)=O)cc(OCCCN(C)C(=O)CCN4C(=O)C=CC4=O)c3n2C/C=C/Cn2c(NC(=O)c3cc(C)nn3CC)nc3cc(C(N)=O)cc(OC)c32)c(C)n1` [compound 102], which “EC50, Lucia reporter signal” value is on record?
Answer: >10,000 ng/mL

Question: Which “EC50, Lucia reporter signal” value does the source give for `CCn1cc(C)nc1C(=O)Nc1nc2cc(C(N)=O)cc(OCCCN(C)C(=O)CCN3C(=O)C=CC3=O)c2n1C/C=C/Cn1c(NC(=O)c2cc(C)nn2CC)nc2cc(C(N)=O)cc(OC)c21` [compound 103] here?
Answer: >10,000 ng/mL

Question: With `CCc1cc(C(=O)Nc2nc3cc(C(N)=O)cc(OCCCN(C)C(=O)CCN4C(=O)C=CC4=O)c3n2C/C=C/Cn2c(NC(=O)c3cc(C)nn3CC)nc3cc(C(N)=O)cc(OC)c32)n(C)n1` [compound 104] as the compound, how does the “EC50, Lucia reporter signal” value read?
Answer: >10,000 ng/mL

Same assay, conditions: Homo sapiens, THP1-Dual; small molecules, 24 h; >10,000 nM = minimal activity up to 10 μM; some values average of multiple experiments; read-out: EC50, Lucia reporter signal

Question: For `COc1cc(C(N)=O)cc2nc(NC(=O)c3ccnnc3)n(C/C=C/Cn3c(NC(=O)c4cccnn4)nc4cc(C(N)=O)cc(O)c43)c12` [Compound 42], which EC50 is on record?
Answer: > 10000 nM

Question: How did the EC50 turn out when `CCn1nc(C)cc1C(=O)Nc1nc2cc(C(N)=O)cc(OC)c2n1C/C=C/Cn1c(NC(=O)c2cc(C)nn2CC)nc2cc(C(N)=O)cc(OCCCN(C)C(=O)CCN3C(=O)C=CC3=O)c21` [compound 12, (E)-1-(4-(5-carbamoyl-2-(1-ethyl-3-methyl-1H-pyrazole-5-carboxamido)-7-methoxy-1H-benzo[d]imidazol-1-yl)but-2-en-1-yl)-7-(3-(3-(2,5-dioxo-2,5-dihydro-1H-pyrrol-1-yl)-N-methylpropanamido)propoxy)-2-(1-ethyl-3-methyl-1H-pyrazole-5-carboxamido)-1H-benzo[d]imidazole-5-carboxamide] was run?
Answer: 37 nM

Question: For `CCn1nc(C)cc1C(=O)Nc1nc2cc(C(N)=O)cc(OC)c2n1C/C=C/Cn1c(NC(=O)c2cc(C)nn2CC)nc2cc(C(N)=O)cc(OCCCN(C)C(=O)[C@H](CC(=O)OC)NC(=O)CCN3C(=O)CC(SC[C@H](N)C(=O)O)C3=O)c21` (stereo partly drawn) [compound 72], which EC50 is on record?
Answer: 275 nM

Same assay, conditions: drug linker conjugated to targeted mAb, 48 h

Question: For `CCn1nc(C)cc1C(=O)Nc1nc2cc(C(N)=O)cc(OC)c2n1C/C=C/Cn1c(NC(=O)c2cc(C)nn2CC)nc2cc(C(N)=O)cc(OCCCN(C)C(=O)OCc3ccc(O[C@@H]4O[C@H](C(=O)O)[C@@H](O)[C@H](O)[C@H]4O)cc3NC(=O)CCNC(=O)CCN3C(=O)C=CC3=O)c21` [compound 13], which “relative potency / activity of ADC, Lucia reporter” value is on record?
Answer: more potent when conjugated to a targeted mAb via a cleavable glucuronide linker (13) than the similar compound 1 conjugate (11)

Same assay, conditions: free drug, 24 h (48 h elsewhere in the source)

Question: `CCn1nc(C)cc1C(=O)Nc1nc2cc(C(N)=O)cc(O)c2n1C/C=C/Cn1c(NC(=O)c2cc(C)nn2CC)nc2cc(C(N)=O)cc(OCCCNC)c21` [Compound 15b] was tested. Which “relative potency of free drug, Lucia reporter” value did it give?
Answer: more potent than 12a

Same assay, conditions: small molecules, 24 h; >10,000 nM = minimal activity up to 10 μM; some values average of multiple experiments; read-out: EC50, Lucia reporter signal

Question: For `CCn1nc(C)cc1C(=O)Nc1nc2cc(C(N)=O)cc(O)c2n1C/C=C/Cn1c(NC(=O)c2cc(C)nn2CC)nc2cc(C(N)=O)cc(OCCCNC)c21` [Compound 15b], which EC50 is on record?
Answer: 5.8 nM
